SMILES strings stand for the structures.

Holding throughout (format): in vivo, mouse
Series [1] can be described thus: Toxicity: blood counts, liver enzymes, kidney function. The text has this:
The inventors have on-going studies to screen for major organ toxicity. Plasma liver enzymes (ALT/AST) and kidney function were normal in TP-064-treated mice.

The test system of another series is ICAM-1. Description: ICAM-1 level, protein chip assay. As to conditions: aged 3xTg-AD female mice; cortex and hippocampus; 30 mg/kg, 7 days, IP. As to the method: FIGS. 19A-19F are six graphs showing PRMT4 inhibitor (TP-064) reduced ICAM-1, VCAM-1 and enhanced E-Cadherin protein levels in aged female 3xTg-AD mice. In FIGS. 19A-19D, aged 3xTg-AD female mice v. […] Adhesion molecules were assessed via protein chip assay in the cortex and hippocampus. * p<0.05 evaluated by one-way ANOVA with Tukey's post-hoc analyses.

A further series concerns aged 3xTg-AD female mice. The series can be described thus: BBB leakage: 40 kDa FITC-dextran in perivascular space. As to conditions: 30 min after FITC-dextran. The text has this: FIGS. 14A-14C show BBB leakage is reduced with specific PRMT4 inhibitor (TP-064) or AAV knockdown of PRMT4 in aged 3xTg-AD female mice. Aged female 3xTg-AD mice had higher levels of 40 kDa FITC-dextran in the perivascular space v. C57 controls. This was reduced with administration of PRMT inhibitor (TP-064) or AAV knockdown of PRMT4. […] FIG. 14B is a schematic representation of one of the disclosed experimental paradigms. […] C57, #p<0.05 v. 3xTg-AD female, evaluated by one-way ANOVA with Tukey's post-hoc analysis.

Another series concerns C57BL/6J mice. The series can be described thus: Regional cortical cerebral blood flow, laser speckle contrast imaging, C57 mice. As to the method:
Surgical Preparation and Anesthetic Procedure: Mice were anesthetized with 4% isoflurane (Cat. No. 21295098, Patterson Veterinary, Greeley, CO) and a mixture of O2 and N2O (30:70) via mask. Hair was shaved at the site of surgery (from the nape up to the eyes). Body temperature was maintained at 37° C. by a rodent heating pad with anal probe as a temperature reference (ThermoStar, RWD Life Science, San Diego, CA). Anesthesia was maintained by lowering isoflurane from 4% to 1%.
Thinned-skull preparation: Mice were placed in a stereotaxic frame to stabilize the skull and artificial tears (Patterson Veterinary, Greeley, CO) was applied in each eye. Dissection scissors and forceps were used to reveal the skull. A high-speed dental drill (RWD Life Science, San Diego, CA) was used to thin the skull creating a small window (1 mm in diameter) approximately 2 mm rostral and 1 mm lateral to the lambda, with saline irrigation to prevent overheating of the skull tissue. Laser speckle contrast imaging or two-photon laser scanning microscopy analyses were conducted following this preparation.
Laser speckle contrast imaging: Cerebral microvasculature was imaged by utilizing the thin skull preparation method. After thinning the skull, the mouse was placed in a stereotaxic apparatus. […]

On to `CNCCN1CCC(c2cc(CN(C)C(=O)c3cccc(Oc4ccccc4)c3)ccn2)CC1` [TP-064, N-Methyl-N-((2-(1-(2-(methylamino)ethyl)piperidin-4-yl)pyridin-4-yl)methyl)-3-phenoxybenzamide], for which the complete blood counts result in series [1] (mice treated 7 days) is “no abnormalities”. In addition, in series [1] (treated mice), the “Plasma liver enzymes (ALT/AST)” value is “normal” and the kidney function result is recorded as “normal”. Also, the ICAM-1 level result in the series on ICAM-1 is on record as “decreased”. In addition, the “40 kDa FITC-dextran in the perivascular space (BBB leakage)” value in the series with aged 3xTg-AD female mice is reported as “reduced”. Moreover, the perfusion entry in the series with C57BL/6J mice (C57 mice, decreased PRMT4 via TP-064/PRMT4-AAV) was “did not affect”. Further, the “regional cortical CBF” value with C57BL/6J mice (treated C57BL/6J mice, 30 mg/kg, IP, 7 days) was 98.3±10.1%.

For the origin of these results see patent US20240238268A1, “TREATMENTS AND METHODS FOR TREATING ALZHEIMER'S DISEASE” (Board of Supervisors of Louisiana State University and …, priority 2021, published 2024).
